Experimental data as given in patent publication US7879861B2, “Combi-molecules having EGFR and DNA targeting properties” (priority 2005, dated 2011).
Like-named read-outs stand apart in the source and are kept apart here.

Legend:
NIH3T3HER14 cells = assay: Growth factor-stimulated proliferation, SRB assay; format: cell-based, mouse; conditions: 72 h
Procedure: (§1) In vitro growth inhibition assay: To study the effect of the compounds on growth factor stimulated-proliferation, cells were grown to 70% of confluence in 48-well plates. They were subsequently washed twice with PBS, incubated in serum-free medium for 18 h and exposed to each drug+growth factors (EGF, TGFα, PDGF or serum) for 72 h. Cell growth was measured using the sulforhodamine B (SRB) assay (24). Briefly, following drug treatment, cells were fixed using 50 μl of cold trichloroacetic acid (50%) for 60 min at 4° C., washed five times with tap water, and stained for 30 min at room temperature with SRB (0.4%) and dissolved in acetic acid (0.5%). The plates were rinsed five times with 1% acetic acid and allowed to air dry. The resulting colored residue was dissolved in 200 μl of Tris base (10 mM), and the optical density read for each well at 450 nm using a Bio-Rad microplate reader (model 2550). […] Cell growth was measured using SRB assay as described previously.

EGFR = EGFR (Homo sapiens, UniProt P00533); assay: Reversibility of EGFR autophosphorylation inhibition in MDA-MB-468 cells (washout, 8 h); format: cell-based; parameters: EGF-induced EGFR autophosphorylation in MDA-MB-468 cells; endogenous in cells; host or cells: MDA-MB-468 (ATCC)
Chain of EGFR (P00533 25-1210): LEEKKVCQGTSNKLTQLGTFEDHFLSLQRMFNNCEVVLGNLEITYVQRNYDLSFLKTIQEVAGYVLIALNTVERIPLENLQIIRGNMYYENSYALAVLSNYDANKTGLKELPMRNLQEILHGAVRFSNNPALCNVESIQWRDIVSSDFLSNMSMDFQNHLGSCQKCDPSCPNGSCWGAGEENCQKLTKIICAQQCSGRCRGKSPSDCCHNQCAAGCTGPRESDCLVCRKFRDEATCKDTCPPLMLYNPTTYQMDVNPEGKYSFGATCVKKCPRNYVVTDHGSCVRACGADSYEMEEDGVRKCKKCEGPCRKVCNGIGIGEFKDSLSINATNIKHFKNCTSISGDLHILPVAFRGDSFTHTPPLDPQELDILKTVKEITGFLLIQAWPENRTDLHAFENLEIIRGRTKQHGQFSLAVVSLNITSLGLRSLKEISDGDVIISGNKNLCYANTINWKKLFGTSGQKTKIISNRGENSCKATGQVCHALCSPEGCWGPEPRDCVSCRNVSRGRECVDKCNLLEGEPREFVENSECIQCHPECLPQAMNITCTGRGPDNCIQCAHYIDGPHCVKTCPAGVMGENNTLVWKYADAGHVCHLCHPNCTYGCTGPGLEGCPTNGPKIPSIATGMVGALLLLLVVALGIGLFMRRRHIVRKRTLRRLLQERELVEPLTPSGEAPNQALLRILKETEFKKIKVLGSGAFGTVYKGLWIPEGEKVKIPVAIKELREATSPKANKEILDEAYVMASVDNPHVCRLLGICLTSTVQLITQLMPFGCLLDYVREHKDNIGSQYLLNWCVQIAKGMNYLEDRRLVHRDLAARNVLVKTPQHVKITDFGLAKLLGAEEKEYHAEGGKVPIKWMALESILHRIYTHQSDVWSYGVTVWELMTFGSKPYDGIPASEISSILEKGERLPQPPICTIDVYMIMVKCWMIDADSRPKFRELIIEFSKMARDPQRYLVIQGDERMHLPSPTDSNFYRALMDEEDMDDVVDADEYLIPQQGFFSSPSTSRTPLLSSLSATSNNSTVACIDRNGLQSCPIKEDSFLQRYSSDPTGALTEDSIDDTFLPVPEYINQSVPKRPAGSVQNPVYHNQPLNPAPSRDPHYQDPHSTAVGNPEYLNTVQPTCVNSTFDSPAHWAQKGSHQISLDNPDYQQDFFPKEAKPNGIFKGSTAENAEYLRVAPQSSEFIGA
Procedure: To test this hypothesis, the reversibility assay described by Fry et al. (13) and Smaill et al. (14) was used, according to which the cells are treated with inhibitors (2 μM) for 2 h and then washed free of drug. After 8 h, EGF was added; after a 10-min incubation the cells were lysed, and the degree of EGFR autophosphorylation measured.

DNA of MDA-MB-468 cells = assay: Alkaline comet assay for DNA damage; format: cell-based, human; conditions: 2 h drug exposure
Procedure: Alkaline Comet Assay for quantization of DNA damage: The alkaline comet assay was performed as described in previously published procedures (19, 20). The cells were exposed to drugs for 2 h, harvested with trypsin-EDTA and re-suspended in PBS. Cell suspensions were diluted to approximately 10^6 cells, and mixed with agarose (1%) in PBS at 37° C. in a 1:10 dilution. The gels were cast on Gelbond strips (Mandel Scientific, Canada) using gel casting chambers and then immediately placed into a lysis buffer [2.5 M NaCl, 0.1 M tetra-sodium EDTA, 10 mM Tris-base and 1% (v/v) Triton X-100, pH 10.0]. After being kept on ice for 30 min, the gels were gently rinsed with distilled water and immersed in a second lysis buffer (2.5 M NaCl, 0.1 M tetrasodium EDTA, 10 mM Tris-base) containing 1 mg/ml proteinase K for 60 min at 37° C. Thereafter, the gels were rinsed with distilled water, incubated in alkaline electrophoresis buffer for 30 min at 37° C., and electrophoresed at 19 V for 20 min. […] Comets were visualized at 330× magnification and DNA damage was quantitated using the Tail Moment parameter (i.e., the distance between the barycenter of the head and the tail of the comet multiplied by the percentage of DNA within the tail of the comet). A minimum of 50 cell/comets were analyzed for each sample, using ALKOMET version 3.1 image analysis software.

MDA-MB-468 cells [1] = assay: Reversibility of antiproliferative effect, SRB assay; format: cell-based, human
Procedure: as §1, with “They were subsequently washed twice with PBS, incubated in serum-free medium for 18 h and exposed to each drug+growth factors (EGF, TGFα, PDGF or serum) for 72 h.” left out

MDA-MB-453 cells = assay: as above; format: cell-based, human
Procedure: as §1, with “They were subsequently washed twice with PBS, incubated in serum-free medium for 18 h and exposed to each drug+growth factors (EGF, TGFα, PDGF or serum) for 72 h.” left out

MAPK (Erk1, 2) [2] = assay: Heregulin-stimulated MAPK phosphorylation in MDA-MB-453 cells (Western blot); format: cell-based, human
Procedure: (§2) Autophosphorylation assay: Inhibition of receptor autophosphorylation in viable cells was determined by anti-phosphotyrosine Western blots as previously described (19). […] Equal amounts of cell lysates were analyzed by Western blot using anti-phosphotyrosine antibodies. Membranes were stripped of anti-phosphotyrosine and reprobed with anti-EGFR or anti-erbB2 antibodies (NeoMarkers, Fremont, Calif.). To study whether an inhibition is reversible or not, duplicate sets of cells were treated with 2 μM of designated compound for 2 h. One set of cells was then stimulated with EGF. The other set of cells was washed free of the compound with warmed serum-free media, incubated for 2 h, washed again, incubated for another 2 h, and incubated for a further 4 h after a subsequent wash. This set of cells was then stimulated with EGF. Western blot was performed as previously described. […] The membrane was incubated with anti-phosphorylated MAPK (Erk1,2) or anti-Erk 1,2 antibodies (Cell Signaling Technology Inc., Beverly, Mass.).

MDA-MB-468 cells [3] = assay: Annexin V binding (apoptosis), flow cytometry; format: cell-based, human
Procedure: Annexin V Binding: Cells were grown in 6-well plates until confluence and then incubated with the compounds for 24 h, 48 and 72 h. The cells were then harvested, washed twice with PBS, and centrifuged. Cells (10^5) were treated with annexin V-FITC and propidium iodide (PI) using the Apoptosis Detection Kit (BD Bioscience Pharmingen, USA) and the supplier's protocol. Annexin V-FITC and PI binding were analyzed by flow cytometry. Data were collected using logarithmic amplification of both the FL1 (FITC) and FL2 (PI) channels. Quadrant analysis of co-ordinate dot plots was performed with CellQuest software. Unstained cells were used to adjust the photomultiplier voltage and for compensation setting adjustment in order to eliminate spectral overlap between the FL1 and FL2 signals.

MAPK (Erk1, 2) [4] = assay: EGF-stimulated MAPK phosphorylation in MDA-MB-468 cells (Western blot); format: cell-based, human; conditions: at concentrations as low as 1 μM
Procedure: as §2

[5] = Chemical stability of combi-molecules; format: physicochemical

With `ClCCNc1ccc2ncnc(Nc3cccc(Br)c3)c2c1` [ZR2002] the “EGF or TGFα-induced proliferation” value (NIH3T3HER14 cells) was “selectively blocking”, the inhibition at 1 µM (NIH3T3HER14 cells; Mus musculus, at 1 μM, read-out: inhibition of PDGF-stimulated growth) was 100% and the inhibition at 10 µM (NIH3T3HER14 cells; Mus musculus, at concentrations >10 μM, read-out: inhibition of serum-stimulated growth) was 100%. For the same compound, the inhibition at 0.1 µM (NIH3T3HER14 cells; Mus musculus, at concentrations as low at 0.1 μM, read-out: inhibition of EGF-stimulated growth) was 100%, the “mode of EGFR inhibition (reversible / irreversible)” value (EGFR) was “irreversible inhibitor of EGFR” and the “EGF-dependent EGFR autophosphorylation immediately after drug exposure” value (EGFR; 2 μM, 2 h) was “completely suppressed”. The “DNA damage (tail moment), in words” value (DNA of MDA-MB-468 cells) was “damages DNA in a dose dependent manner”, the “concentration inducing significant DNA damage” value (DNA of MDA-MB-468 cells) was 10 µM and the IC50 (MDA-MB-468 cells [1]; Homo sapiens, MDA-MB-468, 120 h, read-out: IC50, growth inhibition, 120 h continuous exposure, MDA-MB-468, SRB) was 360 nM. The IC50 (MDA-MB-468 cells [1]; Homo sapiens, MDA-MB-468, read-out: IC50, growth inhibition, 2 h exposure followed by 120 h recovery, MDA-MB-468, SRB) was 7400 nM, the IC50 (MDA-MB-468 cells [1]; read-out: IC50, growth inhibition, 2 h exposure followed by 120 h recovery, MDA-MB-468, SRB) was 5160 nM and the IC50 (MDA-MB-468 cells [1]; read-out: IC50, growth inhibition, 120 h continuous exposure, MDA-MB-468, SRB) was 234 nM. It also gave an IC50 (MDA-MB-453 cells; Homo sapiens, MDA-MB-453, 120 h, read-out: IC50, growth inhibition, 120 h continuous exposure, MDA-MB-453, SRB) of 430 nM, an IC50 (MDA-MB-453 cells; Homo sapiens, MDA-MB-453, read-out: IC50, growth inhibition, 2 h exposure followed by 120 h recovery, MDA-MB-453, SRB) of 4170 nM and an IC50 (MDA-MB-453 cells; read-out: IC50, growth inhibition, 2 h exposure followed by 120 h recovery, MDA-MB-453, SRB) of 4170 nM. The IC50 (MDA-MB-453 cells; read-out: IC50, growth inhibition, 120 h continuous exposure, MDA-MB-453, SRB) was 426 nM, the “heregulin-stimulated MAPK phosphorylation” value (MAPK (Erk1, 2) [2]) was “blocked heregulin-stimulated MAPK phosphorylation” and the “concentration at which detectable levels of apoptosis start” value (MDA-MB-468 cells [3]) was 5 µM. The “inhibition of EGF-stimulated phosphorylation of MAPK” value (MAPK (Erk1, 2) [4]) was 100% and the “chemical stability (in words)” value [5] was “stable compound that does not self-alkylate”.
